Experimental data reported in US20010014324A1 (priority 1998, published 2001).

Assays:
[1] = system: Puccinia recondita spp. tritici; experiment: Induced plant defense on wheat against Puccinia recondita spp. tritici (spray treatment); format: in vivo
Procedure: Ten seeds of wheat ([…]) of the variety “Arina” were grown in pots of 8 cm diameter in a mixture of ⅓ sand and ⅔ TKS1® soil at +25° C. in a 16/8 h light/dark regime. for 7 days till the primary leaf was fully expended.
Brown rust strain Puccinia recondita spp. tritici was propagated on the same variety of wheat. Fully infected, sporulating leaves were cut and the spores dusted onto water containing 0.05% of Tween 20®. The inoculum density was adjusted to 100,000 spores per ml.
Wheat plants with the secondary leaf just emerging were sprayed 7 and 3 days before inoculation. The entire plant was sprayed with PEN extract containing 1-2 g of glucose equivalents and 0.05% of Tween 20 to near run-off with an air driven spray pistol, model JATO 232 FR at 0.5 bar.
After the treatment plants were kept in the greenhouse till they were challenge inoculated. Control plants were mock treated with distilled water.
Treated or control plants were sprayed with approximately 3 ml of sporangia suspension in a ventilated inoculation chamber using an air driven spray pistol, model JATO 232 FR at 0.2 bar to generate a homogeneous layer of fine troplets on the whole seedling.
When the troplets had dried, plants were transferred to Plexiglas boxes and kept at +20° C. and a 60% relative humidity for 24 h in the dark then light was switched on and the plants kept under the same conditions for additional four days. Afterwards plants were returned to the greenhouse and kept at standard conditions as described above.
10 days after inoculation, when the fungus sporulated on control plants, the degree of infection was visually determined as % of infected leaf area on the inoculated leaves plants. The degree of protection was calculated with respect to the control plants according to the formula: [formula]

[2] = system: Phytophthora infestans; format: in vivo; conditions: potato; standard chemical inducer at 500 ppm

## CSC(=O)c1cccc2nnsc12 [CGA 245 704]
[1]; concentration 30 ppm
  % infected: 31.3%
  % protection: 48.8%
[1]; concentration 60 ppm
  % infected: 60%
  % protection: 20%

## CC(N)CC(=O)O (stereo not drawn) [BABA, beta-butyric acid]
[2]
  % infected leaf area: 23%
  % protection: 61%
